The target of the assay is T1, human 11β-HSD1 (Homo sapiens, UniProt P28845).
T1 construct: host or cells: microsome fraction
Nature of the assay: Enzymatic 11beta-HSD1 test (SPA-based detection). It is filed as biochemical. As to conditions: human 11β-HSD1 microsome fraction, [1,2-3H]-cortisone, NADPH, 37° C. 1 hour. The method in brief:
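Scintillation proximity detection: anti-cortisol antibody on SPA-PVT beads captured tritiated cortisol. The stop mix also contained 0.01 mM SSR110887 and was equilibrated 1 h at room temperature before counting. Cortisol came from [1,2-3H]-cortisone ([…]), turned over by human 11β-HSD1 microsomal protein (0.2 µg) with 0.25 mM NADPH in HEPES buffer, 37 °C, 1 h.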

Structures are written as SMILES.

T1 sequence (P28845 whole entry): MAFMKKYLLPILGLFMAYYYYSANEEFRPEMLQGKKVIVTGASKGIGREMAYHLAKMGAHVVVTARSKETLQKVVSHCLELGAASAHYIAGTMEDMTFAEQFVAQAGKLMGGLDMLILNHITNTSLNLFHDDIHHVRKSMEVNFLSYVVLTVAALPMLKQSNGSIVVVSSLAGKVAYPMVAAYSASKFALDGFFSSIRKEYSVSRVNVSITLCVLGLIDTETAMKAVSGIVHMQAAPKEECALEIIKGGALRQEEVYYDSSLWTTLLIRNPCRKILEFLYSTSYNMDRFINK

`O=S1(=O)N=C(N[C@@H](CCO)c2ccccc2F)OC2(COC2)C1c1ccc(-c2ccccc2)cc1` (stereo partly drawn) [Example 76, (S)-3-(9-Biphenyl-4-yl-8,8-dioxo-2,5-dioxa-8lambda6-thia-7-aza-spiro[3.5]non-6-en-6-ylamino)-3-(2-fluorophenyl)-propan-1-ol]: the IC50 was 0.332 µM.
Take `O=S1(=O)N=C(N[C@@H](CCO)c2ccccc2F)OC2(CCC2)C1c1ccc(-c2ccccc2)cc1` (stereo partly drawn) [Example 77, (S)-3-(9-Biphenyl-4-yl-8,8-dioxo-5-oxa-8lambda6-thia-7-aza-spiro[3.5]non-6-en-6-ylamino)-3-(2-fluorophenyl)-propan-1-ol]: it took 0.026 µM to reach half-maximal inhibition (IC50).
Compound `O=S1(=O)N=C(N[C@@H](CCO)c2ccccc2F)OC2(CCCC2)C1c1ccc(-c2ccccc2)cc1` (stereo partly drawn) [Example 78, (S)-3-(10-Biphenyl-4-yl-9,9-dioxo-6-oxa-9lambda6-thia-8-aza-spiro[4.5]dec-7-en-7-ylamino)-3-(2-fluorophenyl)-propan-1-ol] yielded an IC50 of 0.035 µM.
The compound `Cc1ccccc1-c1ccc(C2(C)C(C)(C)OC(N[C@@H](CCO)c3ccccc3F)=NS2(=O)=O)cc1` (stereo partly drawn) [Example 79, (S)-3-(2-Fluorophenyl)-3-[5,6,6-trimethyl-5-(2′-methyl-biphenyl-4-yl)-4,4-dioxo-5,6-dihydro-4H-4lambda6-[1,4,3]oxathiazin-2-ylamino]-propan-1-ol] came in with an IC50 of 0.008 µM. This IC50 lies about 4.4-fold lower than the previous one.
`CC1(C)OC(N[C@@H](CCO)c2ccccc2F)=NS(=O)(=O)C1(C)c1ccc(-c2ccc(F)cc2)cc1` (stereo partly drawn) [Example 80, (S)-3-[5-(4′-Fluorobiphenyl-4-yl)-5,6,6-trimethyl-4,4-dioxo-5,6-dihydro-4H-4lambda6-[1,4,3]oxathiazin-2-ylamino]-3-(2-fluorophenyl)-propan-1-ol] came in with an IC50 of 0.007 µM.
The compound `COc1ccc(-c2ccc(C3(C)C(C)(C)OC(N[C@@H](CCO)c4ccccc4F)=NS3(=O)=O)cc2)cc1` (stereo partly drawn) [Example 81, (S)-3-(2-Fluorophenyl)-3-[5-(4′-methoxy-biphenyl-4-yl)-5,6,6-trimethyl-4,4-dioxo-5,6-dihydro-4H-4lambda6-[1,4,3]oxathiazin-2-ylamino]-propan-1-ol] had an IC50 of 0.01 µM.
With `CC1(C)OC(NC(CCO)c2cccc(F)c2F)=NS(=O)(=O)C1c1ccc(-c2ccccc2)cc1` (stereo not shown) [Example 82, 3-(5-Biphenyl-4-yl-6,6-dimethyl-4,4-dioxo-5,6-dihydro-4H-4lambda6-[1,4,3]oxathiazin-2-ylamino)-3-(2,3-difluorophenyl)-propan-1-ol], half-maximal inhibition (IC50) was put at 0.023 µM. Against the preceding compound, the IC50 is about 2.3-fold higher.
Turning to `CC1(C)OC(N[C@@H](CCO)c2ccccc2Cl)=NS(=O)(=O)C1c1ccc(-c2ccccc2)cc1` (stereo partly drawn) [Example 83, (S)-3-(5-Biphenyl-4-yl-6,6-dimethyl-4,4-dioxo-5,6-dihydro-4H-4lambda6-[1,4,3]oxathiazin-2-ylamino)-3-(2-chloro-phenyl)-propan-1-ol], inhibition was half-maximal at 0.017 µM (IC50).
On to `COc1cccc(-c2ccc(C3C(C)(C)OC(N[C@@H](CCO)c4ccccc4F)=NS3(=O)=O)cc2)c1` (stereo partly shown) [Example 86], for which half-maximal inhibition (IC50) was put at 0.01 µM.
The compound `CC1(C)OC(N[C@@H](CCO)c2ccccc2F)=NS(=O)(=O)C1c1ccc(-c2ccccc2C#N)cc1` (stereo partly shown) [Example 87] came in with an IC50 of 0.007 µM.
Take `CC1(C)OC(N[C@@H](CCO)c2ccc(Cl)cc2)=NS(=O)(=O)C1c1ccc(-c2ccccc2)cc1` (stereo partly drawn) [Example 88, (S)-3-(5-Biphenyl-4-yl-6,6-dimethyl-4,4-dioxo-5,6-dihydro-4H-4lambda6-[1,4,3]oxathiazin-2-ylamino)-3-(4-chloro-phenyl)-propan-1-ol]: it took 0.198 µM to reach half-maximal inhibition (IC50). Against the preceding compound, the IC50 is about 28-fold higher.
The result for `CC1(C)OC(N[C@@H](CCO)c2cccc(Cl)c2)=NS(=O)(=O)C1c1ccc(-c2ccccc2)cc1` (stereo partly drawn) [Example 89, (S)-3-(5-Biphenyl-4-yl-6,6-dimethyl-4,4-dioxo-5,6-dihydro-4H-4lambda6-[1,4,3]oxathiazin-2-ylamino)-3-(3-chloro-phenyl)-propan-1-ol] reads 0.021 µM.
For the compound `CC1(C)OC(N[C@@H](CCO)c2ccccc2F)=NS(=O)(=O)C1c1ccc(-c2cncnc2)cc1` (stereo partly drawn) [Example 90, (S)-3-[6,6-Dimethyl-4,4-dioxo-5-(4-pyrimidin-5-yl-phenyl)-5,6-dihydro-4H-4lambda6-[1,4,3]oxathiazin-2-ylamino]-3-(2-fluorophenyl)-propan-1-ol], the IC50 is 0.007 µM.
`CC1(C)OC(N[C@@H](CCO)c2ccccc2F)=NS(=O)(=O)C1c1ccc(-c2ccc(Cl)s2)cc1` (stereo partly drawn) [Example 91, (S)-3-{5-[4-(5-Chlorothiophen-2-yl)-phenyl]-6,6-dimethyl-4,4-dioxo-5,6-dihydro-4H-4lambda6-[1,4,3]oxathiazin-2-ylamino}-3-(2-fluorophenyl)-propan-1-ol] registered an IC50 of 0.011 µM. This IC50 lies about 1.6-fold higher than the previous one.
As to `CC1(C)OC(N[C@@H](CCO)c2ccccc2F)=NS(=O)(=O)C1c1ccc(-c2cc(Cl)sc2Cl)cc1` (stereo partly drawn) [Example 92, (S)-3-{5-[4-(2,5-Dichlorothiophen-3-yl)-phenyl]-6,6-dimethyl-4,4-dioxo-5,6-dihydro-4H-4lambda6-[1,4,3]oxathiazin-2-ylamino}-3-(2-fluorophenyl)-propan-1-ol], the IC50 was determined as 0.023 µM.
Take `CC1(C)OC(N[C@@H](CCO)c2ccccc2F)=NS(=O)(=O)C1c1ccc(-c2cccc(C#N)c2)cc1` (stereo partly shown) [Example 93]: 0.006 µM corresponded to half-maximal inhibition (IC50).
Turning to `COc1ccccc1-c1ccc(C2C(C)(C)OC(N[C@@H](CCO)c3ccccc3F)=NS2(=O)=O)cc1` (stereo partly drawn) [Example 94, (S)-3-(2-Fluorophenyl)-3-[5-(2′-methoxy-biphenyl-4-yl)-6,6-dimethyl-4,4-dioxo-5,6-dihydro-4H-4lambda6-[1,4,3]oxathiazin-2-ylamino]-propan-1-ol], it took 0.014 µM to reach half-maximal inhibition (IC50).
Compound `CC1(C)OC(N[C@@H](CCO)c2ccccc2F)=NS(=O)(=O)C1c1ccc(-c2ccc(C#N)cc2)cc1` (stereo partly shown) [Example 95] registered an IC50 of 0.006 µM. Against the preceding compound, the IC50 is about 2.3-fold lower.
`CC1(C)OC(N[C@@H](CCO)c2cccc(F)c2Cl)=NS(=O)(=O)C1c1ccc(-c2ccccc2)cc1` (stereo partly drawn) [Example 96, (S)-3-(5-Biphenyl-4-yl-6,6-dimethyl-4,4-dioxo-5,6-dihydro-4H-4lambda6-[1,4,3]oxathiazin-2-ylamino)-3-(2-chloro-3-fluorophenyl)-propan-1-ol] came in with an IC50 of 0.01 µM. This IC50 is about 1.7-fold higher than that of the compound before.
The result for `CC1(C)OC(N[C@@H](CCO)c2ccc(F)cc2F)=NS(=O)(=O)C1c1ccc(-c2ccccc2)cc1` (stereo partly drawn) [Example 97, (S)-3-(5-Biphenyl-4-yl-6,6-dimethyl-4,4-dioxo-5,6-dihydro-4H-4lambda6-[1,4,3]oxathiazin-2-ylamino)-3-(2,4-difluorophenyl)-propan-1-ol] reads 0.016 µM; that for `CC1(C)OC(N[C@@H](CCO)c2cc(F)ccc2F)=NS(=O)(=O)C1c1ccc(-c2ccccc2)cc1` (stereo partly drawn) [Example 98, (S)-3-(5-Biphenyl-4-yl-6,6-dimethyl-4,4-dioxo-5,6-dihydro-4H-4lambda6-[1,4,3]oxathiazin-2-ylamino)-3-(2,5-difluorophenyl)-propan-1-ol], 0.012 µM.
`CC1(C)OC(N[C@@H](CCO)c2cc(Cl)ccc2F)=NS(=O)(=O)C1c1ccc(-c2ccccc2)cc1` (stereo partly drawn) [Example 99, (S)-3-(5-Biphenyl-4-yl-6,6-dimethyl-4,4-dioxo-5,6-dihydro-4H-4lambda6-[1,4,3]oxathiazin-2-ylamino)-3-(5-chloro-2-fluorophenyl)-propan-1-ol] showed an IC50 of 0.025 µM.
Turning to `Cc1ccc(F)cc1[C@H](CCO)NC1=NS(=O)(=O)C(c2ccc(-c3ccccc3)cc2)C(C)(C)O1` (stereo partly drawn) [Example 100, (S)-3-(5-Biphenyl-4-yl-6,6-dimethyl-4,4-dioxo-5,6-dihydro-4H-4lambda6-[1,4,3]oxathiazin-2-ylamino)-3-(5-fluoro-2-methyl-phenyl)-propan-1-ol], inhibition was half-maximal at 0.019 µM (IC50).
The compound `CC1(C)OC(N[C@@H](CCO)c2ccccc2F)=NS(=O)(=O)C1c1ccc(-c2cscn2)cc1` (stereo partly drawn) [Example 101, (S)-3-[6,6-Dimethyl-4,4-dioxo-5-(4-thiazol-4-yl-phenyl)-5,6-dihydro-4H-4lambda6-[1,4,3]oxathiazin-2-ylamino]-3-(2-fluorophenyl)-propan-1-ol] displayed an IC50 of 0.005 µM.
As to `CC1(C)OC(N[C@@H](CCO)c2ccccc2F)=NS(=O)(=O)C1c1ccc(C(F)(F)F)cc1` (stereo partly drawn) [Example 102, (S)-3-[6,6-Dimethyl-4,4-dioxo-5-(4-trifluormethyl-phenyl)-5,6-dihydro-4H-4lambda6-[1,4,3]oxathiazin-2-ylamino]-3-(2-fluorophenyl)-propan-1-ol], the midpoint of inhibition, the IC50, lay at 0.006 µM.
With `CN1CCC(c2ccc(C3C(C)(C)OC(N[C@@H](CCO)c4ccccc4F)=NS3(=O)=O)cc2)CC1` (stereo partly shown) [Example 103] the figure was 0.032 µM.
`CC1(C)OC(N[C@@H](CCO)c2ccccc2F)=NS(=O)(=O)C1c1ccc(C2CCN(CCO)CC2)cc1` (stereo partly shown) [Example 104] had an IC50 of 0.028 µM. This IC50 and that of the compound before are within 1.5-fold of each other.
Turning to `CC1(C)OC(N[C@@H](CCO)c2ccccc2F)=NS(=O)(=O)C1c1ccc(C2CCN(CC(F)F)CC2)cc1` (stereo partly shown) [Example 105], inhibition was half-maximal at 0.008 µM (IC50).
For the compound `CC1(C)OC(N[C@@H](CCO)c2ccccc2F)=NS(=O)(=O)C1c1ccc(CCCN)cc1` (stereo partly shown) [Example 106, (5)-3-{5-[4-(3-Amino-propyl)-phenyl]-6,6-dimethyl-4,4-dioxo-5,6-dihydro-4H-4lambda6-[1,4,3]oxathiazin-2-ylamino}-3-(2-fluorophenyl)-propan-1-ol], the IC50 came out at 0.026 µM.
Consider `CC1(C)OC(N[C@@H](CCO)c2ccccc2F)=NS(=O)(=O)C1c1ccc(N2CCOCC2)cc1` (stereo partly drawn) [Example 107, (S)-3-[6,6-Dimethyl-5-(4-morpholin-4-yl-phenyl)-4,4-dioxo-5,6-dihydro-4H-4lambda6-[1,4,3]oxathiazin-2-ylamino]-3-(2-fluorophenyl)-propan-1-ol], for which the IC50 is 0.033 µM.
With `CN(C)CCCc1ccc(C2C(C)(C)OC(N[C@@H](CCO)c3ccccc3F)=NS2(=O)=O)cc1` (stereo partly drawn) [Example 108, (S)-3-{5-[4-(3-Dimethylamino-propyl)-phenyl]-6,6-dimethyl-4,4-dioxo-5,6-dihydro-4H-4lambda6-[1,4,3]oxathiazin-2-ylamino}-3-(2-fluorophenyl)-propan-1-ol] the figure was 0.042 µM.

A word on the IC50: it is the concentration needed to halve the response being measured.

The values above are taken from patent publication US8895547B2, “Substituted phenyl-oxathiazine derivatives, method for producing them, drugs containing said compounds and the use thereof” (Sanofi, priority 2011, dated 2014).
